Measurements as given in patent US20070254019A1, “METHOD FOR TREATING BRAIN CANCER” (priority 2006, published 2007).

Tests used:
[1] = Microdialysis study of tumor ECF disposition of CKD-602
Description: At all other microdialysis sample intervals, probe recovery was estimated using camptothecin as a tracer agent.
The HPLC system consisted of a Finnigan Specta Systems AS3000 autosampler and P4000 quarternary pump (Thermo Finnigan, Waltham, Mass.) with a Phenomenex Synergi Hydro-RP 80A (4 um, 100×2 mm) analytical column (Phenomenex, Torrance, Calif.). The isocratic mobile phase consisted of 0.1% formic acid in methanol:water (35:85, v/v) and was pumped at 0.2 mL/min. Injection volume was 10 pL and the run time was 10 min. […] The insert probe temperature was set at 400° C. with 3 kV ion spray voltage and 20 V orifice voltage. Nitrogen gas flow was fixed at 75 p.s.i. at the tank head unit. The system was operated with ThermoFinnigan Xcaliber software.

[2] = Plasma, tumor and tissue pharmacokinetic disposition of CKD-602 after single IV administration in mice bearing A375 tumors; format: in vivo
Description: The objectives of the study were to evaluate the plasma, tumor, and tissue disposition of CKD-602 after a single intravenous (IV) administration of liposomes entrapped with CKD-602 and having an outer surface coating of methoxypolyethylene glycol (S-CKD602) and non-liposomal CKD-602 in female SCID mice bearing A375 human melanoma xenografts. New sample processing methods were developed to evaluate the encapsulated and released CKD-602 in plasma after administration of S-CKD602. Microdialysis methodology was used to evaluate the release of CKD-602 from S-CKD602 in tumor ECF.
Mice. All mice were handled in accordance with the Guide to the Care and Use of Laboratory Animals (National Research Council, 1996), and studies were approved by the Institutional Animal Care and Use Committee at the University of Pittsburgh Medical Center. Mice (female C.B-17 SCID,4-6 weeks of age, and specific pathogen free), were obtained from Taconic (Hudson, N.Y.), and were allowed to acclimate to the animal facilities at the University of Pittsburgh for 1 week prior to initiation of study. Mice were housed in microisolator cages and allowed ISDPRO autoclavable rodent chow (PMI Nutrition International, Inc., Brentwood, Mo.) and mice received water ad libitum. Body weights and tumor size were measured twice weekly and clinical observations were made twice daily.
Tumor Lines. A375 human melanoma xenografts were obtained from the DCTD Tumor Repository (Fredrick, Md.) and were mouse antigen production test-negative. A375 tumors were expanded in culture and injected (1×10^7 cells/mouse) subcutaneously into passage mice. The A375 tumors were harvested when they were 1 to 2 g and were implanted as approximately 25-mg fragments subcutaneously on the fight flank of SCID mice by aseptic techniques. […] Pharmacokinetic and microdialysis studies were performed when the tumors were approximately 1000 to 1500 mm^3 (1 to 1.5 g) in size.
Formulation and Administration. S-CKD602 is a pegylated liposomal formulation of CKD-602. The clinical formulation of S-CKD602 was used in this study (Alza Corp., Mountain View Calif.) (Zamboni et al., Final results of a phase I and pharmacokinetic study of STEALTH liposomal CKD-602 (S-CKD602) in subjects with advanced solid tumors. Proceedings of ASCO […];82s:2006). Approximately 80% of the lipid in S-CKD602 liposome is fully hydrogenated soy phosphatidylcholine and cholesterol. In addition, methoxypolyethylene glycol is covalently bound to phosphatidylethanolamine and a component of the lipid bilayer. The mean particle size of the S-CKD602 was approximately 110 nm. CKD-602 is encapsulated in the core of the liposome with an encapsulation efficiency of greater than 90%. The drug-to-lipid ratio of S-CKD602 is approximately […] CKD-602 per milligram of lipid. In the S-CKD602 formulation, the CKD-602 concentration was 0.1 mg/mL. The doses of S-CKD602 refer to actual doses of CKD-602. S-CKD602 was administered at 1 mg/kg IV push via a tail vein over approximately 1 min. This dose is one-half the maximum tolerated dose (MTD) in mice. The dose of S-CKD602 administered was based on the maximum volume of drug allowed to be administered IV by the study's IACUC.
Non-liposomal CKD602 was administered at 30 mg/kg IV push via the tail vein. This dose is approximately the MTD for a single dose of non-liposomal CKD-602 in mice. Non-liposomal CKD-602 was prepared at 3 mg/mL in 270 mM mannitol and 0.4 mM tartaric acid in a 5% dextrose solution at pH 3.6. The vehicle control for S-CKD602 and non-liposomal CKD-602 was 0.9% NaCI and 270 mM mannitol and 0.4 mM tartaric acid in a 5% dextrose solution at pH 3.6, respectively.
Pharmacokinetic Studies. Due to limited sample volume, the pharmacokinetic and microdialysis studies were performed in separate groups of mice. Pharmacokinetic studies of S-CKD602 were performed after administration of vehicle, and at 5 min, 0.25, 0.5, 1, 2, 4, 7, 16, 24, 48, and 72 h after administration. […]

[3] = mice; IV push
[4] = tumor ECF by microdialysis, S-CKD602 (1 mg/kg), Non-Liposomal CKD-602 (30 mg/kg) IV
[5] = brain, single IV dose (S-CKD602 1 mg/kg; non-liposomal 30 mg/kg)
[6] = fat, single IV dose (S-CKD602 1 mg/kg; non-liposomal 30 mg/kg)
[7] = kidney, single IV dose (S-CKD602 1 mg/kg; non-liposomal 30 mg/kg)
[8] = liver, single IV dose (S-CKD602 1 mg/kg; non-liposomal 30 mg/kg)
[9] = muscle, single IV dose (S-CKD602 1 mg/kg; non-liposomal 30 mg/kg)
[10] = plasma, single IV dose (S-CKD602 1 mg/kg; non-liposomal 30 mg/kg)
[11] = spleen, single IV dose (S-CKD602 1 mg/kg; non-liposomal 30 mg/kg)
[12] = tumor, single IV dose (S-CKD602 1 mg/kg; non-liposomal 30 mg/kg)

SMILES: CC[C@@]1(O)C(=O)OCc2c1cc1n(c2=O)Cc2c-1nc1ccccc1c2CCNC(C)C [Non-Liposomal CKD-602]
- CKD-602 in tumor ECF detectable until ([1]; detectable from 10 min, microdialysis): 19.25 h
- variation of CKD-602 concentration in tumor ECF at individual time points ([1]; during the collection intervals): 4- to 5 fold
- Time >1 ng/mL In Tumor ECF [1, 4]: ˜20 h
- Tumor ECF AUC(0-inf) [1, 4]: 639 ng·h/mL
- AUC, sum total CKD-602, Brain [2, 5]: 849 ng·h/mL
- Cmax, sum total CKD-602, Brain [2, 5]: 572 ng/mL
- Tlast, sum total CKD-602, Brain [2, 5]: 7 h
- Tmax, sum total CKD-602, Brain [2, 5]: 4.8 min
- Cmax, sum total CKD-602, Fat [2, 6]: 7,321 ng/mL
- Tlast, sum total CKD-602, Fat [2, 6]: 24 h
- Tmax, sum total CKD-602, Fat [2, 6]: 15 min
- AUC, sum total CKD-602, Kidney [2, 7]: 56,267 ng/mL · h
- Cmax, sum total CKD-602, Kidney [2, 7]: 68,497 ng/mL
- Tlast, sum total CKD-602, Kidney [2, 7]: 24 h
- Tmax, sum total CKD-602, Kidney [2, 7]: 4.8 min
- AUC, sum total CKD-602, Liver [2, 8]: 68,620 ng/mL · h
- Cmax, sum total CKD-602, Liver [2, 8]: 69,000 ng/mL
- Tlast, sum total CKD-602, Liver [2, 8]: 16 h
- Tmax, sum total CKD-602, Liver [2, 8]: 240 min
- Cmax, sum total CKD-602, Muscle [2, 9]: 12,383 ng/mL
- Tlast, sum total CKD-602, Muscle [2, 9]: 24 h
- Tmax, sum total CKD-602, Muscle [2, 9]: 4.8 min
- overall distribution in muscle compared with fat ([2]; non-liposomal CKD-602 30 mg/kg IV, muscle vs fat): 3 fold
- AUC, sum total CKD-602, Fat ([2]; peritoneal cavity fat, single IV dose (S-CKD602 1 mg/kg; non-liposomal 30 mg/kg)): 8,280 ng/mL · h
- Plasma Sum Total AUC(0-inf) ([2]; plasma, S-CKD602 (1 mg/kg), Non-Liposomal CKD-602 (30 mg/kg) IV): 9,117 ng/mL · h
- Tlast, sum total CKD-602, Plasma ([2]; plasma, last detectable time, single IV dose (S-CKD602 1 mg/kg; non-liposomal 30 mg/kg)): 16 h
- Cmax, sum total CKD-602, Plasma [2, 10]: 6,959 ng/mL
- Tmax, sum total CKD-602, Plasma [2, 10]: 4.8 min
- Tmax, sum total CKD-602, Plasma ([2]; plasma, single IV dose (S-CKD602 1 mg/kg; non-liposomal 30 mg/kg), listed as non-liposomal CKD-602): 4.98 min
- AUC, sum total CKD-602, Plasma ([2]; plasma, single IV dose (S-CKD602 1 mg/kg; non-liposomal CKD-602 30 mg/kg)): 9,117 ng/mL · h
- AUC, sum total CKD-602, Muscle ([2]; skeletal muscle, single IV dose (S-CKD602 1 mg/kg; non-liposomal 30 mg/kg)): 24,485 ng/mL · h
- AUC, sum total CKD-602, Spleen [2, 11]: 23,124 ng/mL · h
- Cmax, sum total CKD-602, Spleen [2, 11]: 14,724 ng/mL
- Tlast, sum total CKD-602, Spleen [2, 11]: 24 h
- Tmax, sum total CKD-602, Spleen [2, 11]: 15 min
- tissues with the highest exposures of CKD-602 ([2]; sum total CKD-602 in tissues): liver and kidney
- Tumor Sum Total(0-inf) ([2]; tumor homogenate AUC, S-CKD602 (1 mg/kg), Non-Liposomal CKD-602 (30 mg/kg) IV): 11,661 ng/mL · h
- Cmax, sum total CKD-602, Tumor [2, 12]: 3,688 ng/mL
- Tlast, sum total CKD-602, Tumor [2, 12]: 24 h
- Tmax, sum total CKD-602, Tumor [2, 12]: 30 min
- MTD for a single dose [3]: ~30 mg/kg
